Measurements: patent US20260365696A1, “INHIBITORS OF PTP1B / NCK1 INTERACTION AND METHODS OF MAKING AND USING SAME” (Radella Pharmaceuticals LLC, priority 2023, published 2026)

Target: T1, SH3-2 domain of NCK1 (Homo sapiens, UniProt P16333)
T1 construct: To amplify the NCK1 SH3-2 domain, the primers; 10xHis tag with TEV site (vector pSF-OXB20-NH2-10HIS) (N, cleaved yes); made in house; host or cells: E. coli C43(DE3)
Test: Isothermal titration calorimetry (ITC) binding to NCK1 SH3-2 domain
Conditions: ITC; for Kd: 25 °C, pH 8.0
Source text: Human PTP1B cDNA (NM_002827) and human NCK1 cDNA (NM 006153) were obtained (Origene, MD, USA). PTP1B Primers were designed to amplify the ORFs with added homology to the cut vector (EcoRI-digested pSF-OXB20-NH2-10HIS) in the forward primer sequence. To amplify full-length PTP1B, the primers ptp1b_FL_fwd ([…]) (SEQ ID NO: 159) and ptp1b_FL_rev ([…]) (SEQ ID NO: 160) were used. To amplify truncations of PTP1B, the following primer pairs were used: ptp1b_FL-Fwd and one of Ptplb_323stop_rev (gtgcaggaggagttcgaatt[…]) (SEQ ID NO: 161), ptp1b_344stop_rev ([…]) (SEQ ID NO: 162) or ptp1b_278stop_rev([…]) (SEQ ID NO: 163). To amplify the NCK1 SH3-2 domain, the primers ncklsh32_fwd ([…]) (SEQ ID NO: 164) and ncklsh32_rev ([…]) (SEQ ID NO: 165) were used. The amplified fragments were purified using a DNA clean-up kit according to manufacturer's instructions (QIAquick PCR purification kit, Qiagen).
To produce and purify fusion proteins, a culture was inoculated with 1% of overnight-cultured inoculum. Protein expression was carried out under the conditions described above, scaled up as necessary. Cells expressing the recombinant proteins were harvested in 50 mL tubes by centrifugation and stored at −80 °C. Cells containing the expressed gene product were thawed over ice and resuspended in Extraction buffer (10 mM Tris, pH 7.4 or 10 mM Sodium Phosphate, pH 8.0; 300 mM NaCl, 1 mM DTT or TCEP; 0-10% glycerol and 1 μg lysozyme) and sonicated over ice (4 °C) for 3 min total using pulses of 5 s with 15 s intervals, using a wide probe at 15 amplitude microns (Soniprep 150, MSE). Insoluble material was removed from the lysate by centrifugation at 20K rpm for 20-60 min at 4 °C. Supernatant was filtered through a 0.22 μm PVDF filter membrane and applied to 1-2 5 mL HisTrap FF Crude (Cytiva) prepacked Ni columns and connected to an AKTA explorer. After thorough washing with binding buffer (10 mM Tris, pH 7.4 or 10 mM Sodium Phosphate, pH 8.0; 300 mM NaCl; 1 mM DTT or TCEP and 25 mM Imidazole), protein was eluted using elution buffer (10 mM Tris, pH 7.4 or 10 mM Sodium Phosphate, pH 8.0; 150-300 mM NaCl; 1 mM DTT or TCEP and 250 mM Imidazole). Fractions containing protein of interest were confirmed by SDS PAGE. Protein was diluted with GF buffer (10 mM Tris, pH 7.4 or 10 mM Sodium Phosphate, pH 8.0; 150-300 mM NaCl) and subjected to TEV protease treatment overnight at 4-10 °C. Following proteolytic digestion, HIS-tag and TEV protease were removed by filtration through a clean 5 mL HisTrap FF Crude (Cytiva) prepacked Ni column. Protein was concentrated on a PES ultrafiltration device by centrifugation at 4000 rpm at 4 °C, and protein was polished via a HiPrep S-100 26/60 (Cytiva) using GF buffer (as described above). Purified proteins were concentrated using ultrafiltration, and protein concentration was determined using ultraviolet-visible spectroscopy. The integrity and identity of all proteins were verified by mass spectrographic analysis.
Isothermal titration calorimetry (ITC) was used to determine binding affinities for peptides against the SH3-2 domain of NCK1. Experiments were conducted at 25 °C using either a MicroCal iTC200 or MicroCal PEAQ-ITC calorimeter. The buffer used for all ITC experiments was 10 mM sodium [COMPOUND LEFT OUT] mM sodium chloride (pH=8.0). A series of peptides (concentration 3-7.5 mM) were titrated in to NCK1 SH3-2 domain (concentration 0.125-0.3 mM) using the following conditions: one injection of 0.2 μL followed by 19 injections of 2 μL, 120-150 seconds spacing between injections, at 25 °C. The data were fit using analysis software provided by the manufacturer and affinity values were calculated. The best fitting occurred when the number of sites was between 0.8 and 1.2. The experiments were repeated twice for a total of three times, and the average binding affinity for each peptide was generated. […]

[1] = substitutions at position 6 of MD18
[2] = substitutions at position 4 of MD18 in a 7-mer
[3] = substitutions at position 3 of MD18
[4] = Alanine scanning of the MD20 6-mer peptide
[5] = substitutions at position 1 of MD18
[6] = N- or C-terminal extensions, 30-mers tested one to three times

Ac-PPRPPKRY-NH2 [MH155] was tested, and the Kd (substitutions at position 8 of the 8-mer MH063, certain peptides tested one to three times) was ≤ 300 µM.

Ac-PPRPPLR-NH2 [MH102, Ac-PPRPPLR-NH2] was tested, and the Kd [1] was ≤ 300 µM.

For Ac-PPRPPMR-NH2 [MH112, Ac-PPRPPMR-NH2], the Kd [1] was ≤ 300 µM.

With Ac-PPRPPNR-NH2 [MH053, Ac-PPRPPNR-NH2] the Kd [1] was ≤ 300 µM.

For Ac-PPRPPPR-NH2 [MH107, Ac-PPRPPPR-NH2], the Kd [1] was ≤ 300 µM.

For Ac-PPRPPQR-NH2 [MH088, Ac-PPRPPQR-NH2], the Kd [1] was ≤ 300 µM.

With Ac-PPRPPRR-NH2 [MH048, Ac-PPRPPRR-NH2] the Kd [1] was ≤ 300 µM.

For Ac-PPRPPSR-NH2 [MH052, Ac-PPRPPSR-NH2], the Kd [1] was ≤ 300 µM.

With Ac-PPRPPTR-NH2 [MH116, Ac-PPRPPTR-NH2] the Kd [1] was ≤ 300 µM.

For Ac-PPRPPVR-NH2 [MH126, Ac-PPRPPVR-NH2], the Kd [1] was ≤ 300 µM.

In the case of Ac-PPRPPWR-NH2 [MH050, Ac-PPRPPWR-NH2], the Kd [1] is reported as ≤ 300 µM.

In the case of Ac-PPRPPYR-NH2 [MH122, Ac-PPRPPYR-NH2], the Kd [1] is reported as ≤ 300 µM.

With Ac-PPRQPKR-NH2 [MH131, Ac-PPRQPKR-NH2] the Kd [2] was > 1000 µM.

Ac-PPRRPKR-NH2 [MH062, Ac-PPRRPKR-NH2] showed a Kd [2] of 300 to 600 µM.

For Ac-PPRSPKR-NH2 [MH108, Ac-PPRSPKR-NH2], the Kd [2] was > 1000 µM.

With Ac-PPRTPKR-NH2 [MH115, Ac-PPRTPKR-NH2] the Kd [2] was 300 to 600 µM.

In the case of Ac-PPRVPKR-NH2 [MH125, Ac-PPRVPKR-NH2], the Kd [2] is reported as ≤ 300 µM.

Ac-PPRWPKR-NH2 [MH118, Ac-PPRWPKR-NH2] was tested, and the Kd [2] was > 1000 µM.

Ac-PPRYPKR-NH2 [MH121, Ac-PPRYPKR-NH2] was tested, and the Kd [2] was 300 to 600 µM.

In the case of Ac-PPSPPKR-NH2 [MH059, Ac-PPSPPKR-NH2], the Kd [3] is reported as ≤ 300 µM.

In the case of Ac-PPTPPKR-NH2 [MH114, Ac-PPTPPKR-NH2], the Kd [3] is reported as ≤ 300 µM.

In the case of Ac-PPVPPKR-NH2 [MH124, Ac-PPVPPKR-NH2], the Kd [3] is reported as ≤ 300 µM.

Substance Ac-PPWPPKR-NH2 [MH056, Ac-PPWPPKR-NH2] has a Kd [3] of 300 to 600 µM.

For Ac-PPYPPKR-NH2 [MH120, Ac-PPYPPKR-NH2], the Kd [3] was ≤ 300 µM.

For Ac-PRAPKR-NH2 [MH010, Ac-PRAPKR-NH2], the Kd [4] was > 1000 µM.

With Ac-PRPAKR-NH2 [MH011, Ac-PRPAKR-NH2] the Kd [4] was > 1000 µM.

Ac-PRPPAR-NH2 [MH012, Ac-PRPPAR-NH2] was tested, and the Kd [4] was 300 to 600 µM.

With Ac-PRPPK-NH2 [MH022, Ac-PRPPK-NH2] the “binding to NCK1 SH3-2 domain (in words)” value was “abolished binding” and the Kd (Peptide truncation analysis) was > 1000 µM.

Ac-PRPPKA-NH2 [MH013, Ac-PRPPKA-NH2] was tested, and the Kd [4] was > 1000 µM and the “binding to NCK1 SH3-2 domain (in words)” value was “abolished binding”.

Ac-QPRPPKR-NH2 [MH086, Ac-QPRPPKR-NH2] was tested, and the Kd [5] was ≤ 300 µM.

In the case of Ac-RPPKR-NH2 [MH018, Ac-RPPKR-NH2], the Kd (Peptide truncation analysis) is reported as > 1000 µM.

In the case of Ac-RPRPPKR-NH2 [MH068, Ac-RPRPPKR-NH2], the Kd [5] is reported as ≤ 300 µM.

In the case of “Ac-SPAKGEPSLPEK-NH2 [MH133, reference compound]”, the Kd (exemplary control peptides) is reported as > 1000 µM.

With Ac-SPRPPKR-NH2 [MH074, Ac-SPRPPKR-NH2] the Kd [5] was ≤ 300 µM.

With “Ac-SVQDQWKELSHEDLEPPPEHIPPPPRPPKR-NH2 [MH136]” the Kd [6] was ≤ 300 µM.

In the case of Ac-TPRPPKR-NH2 [MH113, Ac-TPRPPKR-NH2], the Kd [5] is reported as ≤ 300 µM.

In the case of Ac-VPRPPKR-NH2 [MH123, Ac-VPRPPKR-NH2], the Kd [5] is reported as ≤ 300 µM.

For “Ac-WKELSHEDLEPPPEHIPPPPRPPKR-NH2 [MH135]”, the Kd [6] was ≤ 300 µM.

Ac-WPRPPKR-NH2 [MH117, Ac-WPRPPKR-NH2] was tested, and the Kd [5] was ≤ 300 µM.

With Ac-YPRPPKR-NH2 [MH119, Ac-YPRPPKR-NH2] the Kd [5] was ≤ 300 µM.

With “H-PAVPPRP-NH2 [MH081, H-PAVPPRP-NH2, reference compound]” the Kd (exemplary control peptides) was > 1000 µM.

In the case of H-PPRPPKR-NH2 [MH075, H-PPRPPKR-NH2], the Kd (Modified MD18/MD20 peptides) is reported as ≤ 300 µM.
